Source: the supplement of paper PMC3493320

Test system: NCI-H295R
Assay: IC50 (antiproliferative, ATP content)
Details: 48 h
Procedure, shortened: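 Adrenocortical carcinoma cells in 1536-well plates (1500 per well, serum-free DMEM plus ITS, overnight culture) were exposed for 48 h at 37 °C, 5% CO2 to pin-transferred compounds at 8 final concentrations ranging 0.6 nM to 46 µM. ATP content was then read as CellTiter-Glo luminescence and normalised to vehicle and positive-control wells. The IC50 came from logistic curve fits, and any compound lacking a concentration response was recorded as above the top dose.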

| IC50 | SMILES |
| --- | --- |
| > 46 µM | CCOc1ccc2nc(S(N)(=O)=O)sc2c1 |
| > 46 µM | CC(C)(C)C(=O)Oc1ccc(S(=O)(=O)Nc2ccccc2C(=O)NCC(=O)[O-])cc1.O.O.O.O.[Na+] |
| > 46 µM | C(=Cc1ccncc1)c1ccccc1 |
| > 46 µM | O=C(O)[C@@H](S)[C@H](S)C(=O)O |
| > 46 µM | CCN(CC)CCNC(=O)c1ccc(NC(C)=O)cc1.Cl |
| > 46 µM | O.O=C(O)[C@@H]1[C@H]2C[C@H]3c4[nH]c5ccccc5c4CCN3C[C@@H]2CC[C@@H]1O |
| > 46 µM | Cc1cccc(Nc2ccccc2C(=O)O)c1C |
| > 46 µM | N=C(N)NS(=O)(=O)c1ccc(N)cc1 |
| > 46 µM | CCC(=O)O[C@@H]1CC(=O)O[C@H](C)CC=CC=C[C@H](O)[C@H](C)C[C@H](CC=O)[C@H](O[C@@H]2O[C@H](C)[C@@H](O[C@H]3C[C@@](C)(O)[C@@H](OC(=O)CC)[C@H](C)O3)[C@H](N(C)C)[C@H]2O)[C@H]1OC |
| > 46 µM | O=C1c2ccccc2C(=O)C1c1ccc(Br)cc1 |
| > 46 µM | C[C@]12CC[C@@H]3c4ccc(O)cc4CC[C@H]3[C@@H]1C[C@@H](O)[C@H]2O |
| > 46 µM | CS(=O)(=O)c1ccc([C@@H](O)[C@@H](COC(=O)CN)NC(=O)C(Cl)Cl)cc1.Cl |
| > 46 µM | C=CC1=C(C(=O)O)N2C(=O)[C@@H](NC(=O)C(=NO)c3csc(N)n3)[C@H]2SC1 |
| > 46 µM | CC1(C)O[C@@H]2C[C@H]3[C@@H]4CCC5=CC(=O)C=C[C@]5(C)[C@H]4[C@@H](O)C[C@]3(C)[C@]2(C(=O)CO)O1 |
| > 46 µM | O=C(N[C@H]([C@H]1O[C@@H]([C@@H]4O)OC(C(O)=O)[C@H]([C@@H]4O)O[C@@H]([C@@H]3NC(C)=O)O[C@@H]([C@H](C3O[C@H]([C@@H]2O)O[C@H]([C@](O)=O)C([C@@H]2O)O)O)CO)C(O[C@@H]([C@H]1O)CO)O)C (some centres undefined) |
| > 46 µM | Cc1nc(-c2ccc(Cl)cc2)oc1COC(C)(C)C(=O)O |
| > 46 µM | O[C@@H]1CC[C@@H](/C=C(C)/[C@H]([C@H](C)[C@@H](O)CC4=O)O[C@@]([C@H]2N(C(C([C@]3(O)O[C@H]([C@H](C[C@H](C/C(C)=C/[C@H]4CC=C)C)OC)[C@@H](OC)C[C@H]3C)=O)=O)CCCC2)=O)C[C@H]1OC |
| > 46 µM | CC(C)NC[C@@H](O)COc1cccc2ccccc12 |
| > 46 µM | CCCCC(=O)O[C@]1(C(=O)CO)CC[C@H]2[C@@H]3CCC4=CC(=O)CC[C@]4(C)[C@H]3[C@@H](O)C[C@@]21C |
| > 46 µM | O=C(Nc1ccc(Cl)c(Cl)c1)C1CC1 |
| > 46 µM | Oc1ccc(OCc2ccccc2)cc1 |
| > 46 µM | CO/N=C(/C(=O)N[C@@H]1C(=O)N2C(C(=O)[O-])=C(COC(C)=O)CS[C@H]12)c1csc(N)n1.[Na+] |
| > 46 µM | OC[C@H]1OC(O)[C@H](O)[C@@H](O)[C@H]1O (some centres undefined) |
| > 46 µM | Nc1ncnc2c1ncn2[C@@H]1O[C@H](CO)[C@@H](O)[C@H]1O |
| > 46 µM | COC(=O)CCC[N+](C)(C)C.[Cl-] |
| > 46 µM | CCc1cccc2c3c([nH]c12)C(CC)(CC(=O)O)OCC3 (centres undefined) |

| IC50 | SMILES |
| --- | --- |
| > 46 µM | CCCCCCCCCCCCCCCC(=O)NCCO |
| > 46 µM | CC[N+](CC)(CCNC(=O)C(=O)NCC[N+](CC)(CC)Cc1ccccc1Cl)Cc1ccccc1Cl.[Cl-].[Cl-] |
| > 46 µM | CC1(C)S[C@@H]2[C@H](NC(=O)C3(N)CCCCC3)C(=O)N2[C@H]1C(=O)O |
| > 46 µM | CCCOC(=O)c1ccccc1 |
| > 46 µM | CCCCCCCC(=O)OCC(COC(=O)CCCCCCC)OC(=O)CCCCCCC |
| > 46 µM | CCN(CC)CCOc1ccc2nc(N(C)C)sc2c1 |
| > 46 µM | CCCCC |
| > 46 µM | NCCCCCC(=O)O |
| > 46 µM | Nc1nc2ccc(OC(F)(F)F)cc2s1 |
| > 46 µM | Nc1cccc2c1CN(C1CCC(=O)NC1=O)C2=O (centres undefined) |
| > 46 µM | Cc1ncc(CO)c(C=O)c1O |
| > 46 µM | Nc1ccc(S(=O)(=O)Nc2ccccc2)cc1 |
| > 46 µM | CC1CCN(CCCC(=O)c2ccc(F)cc2)CC1 |
| > 46 µM | NC(=O)c1ccccc1O |
| > 46 µM | CNC[C@H](O)[C@@H](O)[C@@H](O)[C@H](O)CO.Cc1c(Nc2ncccc2C(=O)O)cccc1C(F)(F)F |
| > 46 µM | CC(c1cc2ccccc2s1)N(O)C(N)=O (centres undefined) |
| > 46 µM | Cl.O=C(O)c1cn(C2CC2)c2cc(N3CCNCC3)c(F)cc2c1=O |
| > 46 µM | C=C1[C@H](CO)[C@@H](O)C[C@@H]1n1cnc2c(=O)[nH]c(N)nc21 |
| > 46 µM | c1ccc2c(c1)OCC(CN1CCCCC1)O2 (centres undefined) |
| > 46 µM | O.O.Oc1cc(O)cc(O)c1 |
| > 46 µM | O=P([O-])([O-])OC[C@@]1(O)O[C@H](COP(=O)([O-])O)[C@@H](O)[C@@H]1O.[Na+].[Na+].[Na+] |
| > 46 µM | C[C@@H]1C[C@H]2[C@@H]3C[C@H](F)C4=CC(=O)C=C[C@]4(C)[C@@]3(Cl)[C@@H](O)C[C@]2(C)[C@H]1C(=O)COC(=O)C(C)(C)C |
| > 46 µM | CN/C(=N\C#N)NCCSCc1csc(N=C(N)N)n1 |
| > 46 µM | CCOC(C)=O |
| > 46 µM | O=C(/C=C/c1ccc(O)c(O)c1)O[C@@H]1C[C@@](OC(=O)/C=C/c2ccc(O)c(O)c2)(C(=O)O)C[C@@H](O)[C@@H]1O |
| > 46 µM | COc1ccc2cc([C@H](C)CO)ccc2c1 |

| IC50 | SMILES |
| --- | --- |
| > 46 µM | CCCN[C@H]1CCc2nc(N)sc2C1 |
| > 46 µM | CC(=O)N(CC(O)CO)c1c(I)c(C(=O)NCC(O)CO)c(I)c(C(=O)NCC(O)CO)c1I (centres undefined) |
| > 46 µM | CCCN(CCC)C(=O)C(CCC(=O)O)NC(=O)c1ccccc1 (centres undefined) |
| > 46 µM | COc1cc(/C=C/C(=O)CC(=O)/C=C/c2ccc(O)c(OC)c2)ccc1O |
| > 46 µM | C[C@@H](O)[C@H](N)C(=O)O |
| > 46 µM | O=C(CCCN1CCC(C(=O)c2ccc(F)cc2)CC1)c1ccc(F)cc1 |
| > 46 µM | COc1cc2c(cc1OC)CC(=O)N(CCCN(C)C[C@H]1Cc3cc(OC)c(OC)cc31)CC2.Cl |
| > 46 µM | CCN1CC(CCN2CCOCC2)C(c2ccccc2)(c2ccccc2)C1=O.Cl (centres undefined) |
| > 46 µM | Cc1ccccc1CNc1ncnc2c1ncn2[C@@H]1O[C@H](CO)[C@@H](O)[C@H]1O |
| > 46 µM | COC(=O)c1cccnc1 |
| > 46 µM | CNCCCC12CCC(c3ccccc31)c1ccccc12 |
| > 46 µM | O=C(O)CCCCC1CCSS1 (centres undefined) |
| > 46 µM | C[C@]12C=CC(=O)C=C1CC[C@H]1[C@@H]3C[C@@H](O)[C@](O)(C(=O)CO)[C@@]3(C)C[C@H](O)[C@@]12F |
| > 46 µM | O=P([O-])([O-])OP(=O)([O-])[O-].[Na+].[Na+].[Na+].[Na+] |
| > 46 µM | COc1ccc(C=NNC(=O)c2ccncc2)c(C(=O)O)c1OC |
| > 46 µM | NC1=NC=NC2=C1N=CN2[C@@H]3O[C@H](COP(OP(OC[C@H]4O[C@@H]([N@@+]5=CC=CC(C(N)=O)=C5)[C@H](O)[C@@H]4O)([O-])=O)(O)=O)[C@@H](O)[C@H]3O |
| > 46 µM | CC(C)(C)c1ccc2c(S(=O)(=O)[O-])c(C(C)(C)C)ccc2c1.[Na+] |
| > 46 µM | O=C1OC(c2ccc(O)cc2)(c2ccc(O)cc2)c2ccccc21 |
| > 46 µM | CCn1cc(C(=O)O)c(=O)c2cc(F)c(N3CCNCC3)nc21 |
| > 46 µM | CC(C)=CCC/C(C)=C/CC/C(C)=C/CC/C=C(\C)CC/C=C(\C)CCC=C(C)C |
| > 46 µM | CCCCCCCCCCCCCCCC(=O)OC[C@H](COP(=O)([O-])OCC[N+](C)(C)C)OC(=O)CCCCCCCCCCCCCCC |
| > 46 µM | CN(C)CCOC(=O)C(c1ccccc1)C1(O)CCCC1.Cl (centres undefined) |
| > 46 µM | CCCCN1CCCC1C(=O)Nc1c(C)cc(C)cc1C (centres undefined) |
| > 46 µM | O=C3N1/C(=C(/Cl)CS[C@@H]1[C@@H]3NC(=O)[C@H](N)c2ccccc2)C(O)=O |
| > 46 µM | CC1(C)NC(=O)N(c2ccc([N+](=O)[O-])c(C(F)(F)F)c2)C1=O |

| SMILES | IC50 |
| --- | --- |
| O=C(O)C(Cl)(Cl)Cl | > 46 µM |
| CCOC(=O)c1ccc(OC(=O)CCCCCNC(=N)[NH3+])cc1.CS(=O)(=O)[O-] | > 46 µM |
| [H][C@]1(CC3)[C@]([H])4[C@]([C@@H]([C@@](C)=O)CC4)(C)CC[C@@]([H])1[C@]2(C)[C@]3([H])C[C@H](O)CC2 | > 46 µM |
| CCOC(=O)/C=C(C)/C=C/C[C@@H](C)CCCC(C)C | > 46 µM |
| C=C(C)[C@@H]1[C@H]2OC(=O)[C@@H]1[C@]1(O)C[C@H]3O[C@]34C(=O)O[C@H]2[C@]14C.CC(C)(O)[C@@H]1[C@H]2OC(=O)[C@@H]1[C@]1(O)C[C@H]3O[C@]34C(=O)O[C@H]2[C@]14C | > 46 µM |
| CC(=O)c1ccc2c(c1)N(CCCN(C)C)c1ccccc1S2.O=C(O)/C=C/C(=O)O | > 46 µM |
| CCN(CC)C(=O)N1CCN(C)CC1.O=C(O)CC(O)(CC(=O)O)C(=O)O | > 46 µM |
| Br.CC(N)Cc1ccc(O)cc1 (centres undefined) | > 46 µM |
| C[N@@+]1([O-])[C@@H]2CC[C@H]1C[C@@H](OC(=O)C(CO)c1ccccc1)C2 (some centres undefined) | > 46 µM |
| O=c1[n-]c(=O)n(Cl)c(=O)n1Cl.[Na+] | > 46 µM |
| CCC1(c2ccccc2)C(=O)NC(=O)N(C)C1=O (centres undefined) | > 46 µM |
| C[C@]12CC[C@H](OS(=O)(=O)[O][Na])CC1=CC[C@@H]1[C@@H]2CC[C@]2(C)C(=O)CC[C@@H]12.O.O | > 46 µM |
| N=C(N)NCc1cccc(I)c1.N=C(N)NCc1cccc(I)c1.O=S(=O)(O)O | > 46 µM |
| CNC(=O)NC(O)C(Cl)(Cl)Cl (centres undefined) | > 46 µM |
| [C@@]2\1(\C(=C/C(/C=C/1)=O)CC[C@@H]4[C@@H]2CC[C@@]3(OC(=O)CC[C@H]34)C)C | > 46 µM |
| O=C1O[C@@H]3CCN2C\C=C(\COC(=O)[C@](C)(O)[C@](C)(O)[C@H]1C)[C@@H]23 | > 46 µM |
| C[N+]1(CCC(C(N)=O)(c2ccccc2)c2ccccc2)CCCCC1.[Br-] | > 46 µM |
